Data from PubChem BioAssay (NCI).
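Grown in 96-well plates, cells were treated for 48 hours with each compound at five concentrations. Insufficient inhibition: endpoint recorded as highest concentration tested. Here, GI50 denotes the concentration required for 50% inhibition of growth. TGI: total growth inhibition.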

Columns and labels:
Assay in all cases: DTP human tumour cell line panel, 48 h
NCI-H522 lung = tested on: NCI-H522 lung
786-0 renal = tested on: 786-0 renal
SF-539 CNS = tested on: SF-539 CNS
MALME-3M melanoma = tested on: MALME-3M melanoma
NCI-H23 lung = tested on: NCI-H23 lung
K-562 leukemia = tested on: K-562 leukemia
OVCAR-3 ovarian = tested on: OVCAR-3 ovarian
OVCAR-8 ovarian = tested on: OVCAR-8 ovarian
MDA-MB-435 = tested on: MDA-MB-435
TK-10 renal = tested on: TK-10 renal
UACC-62 melanoma = tested on: UACC-62 melanoma
KM12 colon = tested on: KM12 colon
RPMI-8226 leukemia = tested on: RPMI-8226 leukemia
UO-31 renal = tested on: UO-31 renal
CCRF-CEM leukemia = tested on: CCRF-CEM leukemia
UACC-257 melanoma = tested on: UACC-257 melanoma
HS 578T breast = tested on: HS 578T breast

Compound | TGI (NCI-H522 lung) [µM] | TGI (786-0 renal) [µM] | TGI (SF-539 CNS) [µM] | TGI (MALME-3M melanoma) [µM] | TGI (NCI-H23 lung) [µM] | TGI (K-562 leukemia) [µM] | TGI (OVCAR-3 ovarian) [µM] | TGI (OVCAR-8 ovarian) [µM] | TGI (MDA-MB-435) [µM] | TGI (TK-10 renal) [µM] | TGI (UACC-62 melanoma) [µM] | TGI (KM12 colon) [µM] | TGI (RPMI-8226 leukemia) [µM] | TGI (UO-31 renal) [µM] | TGI (CCRF-CEM leukemia) [µM] | TGI (UACC-257 melanoma) [µM] | TGI (HS 578T breast) [µM] | GI50 (SF-539 CNS) [µM] | GI50 (UACC-62 melanoma) [µM] | GI50 (HS 578T breast) [µM]
CCN(CC)C(=S)/N=C(\SC(=S)N(CC)CC)c1ccccc1 | 3.39 | > 100 | > 100 | > 100 | > 100 | > 100 | > 100 | > 100 | > 100 | > 100 | > 100 | > 44.1 | > 96.1 | > 88.2 | > 100 | > 100 | > 100 |  |  | 
COC(O)C(=O)c1c2c(cc3c1CCC3)CCC2 (stereo not given) | > 100 | > 100 | > 100 | > 100 | > 100 | > 100 | > 100 | > 100 | > 100 | > 100 | > 100 | > 100 | > 100 | > 100 | > 100 | > 100 | > 100 |  |  | 
CC(C)(C)C(O)CC(O)(C(F)(F)F)C(F)(F)F (stereo not given) | > 100 | > 100 | > 100 | > 100 | > 100 | > 100 | > 100 | > 100 | > 100 | > 100 | > 100 | > 100 | > 100 | > 100 | > 100 | > 100 | > 100 |  |  | 
O=C(c1cc(Cl)cc(Cl)c1)N(Cc1cccnc1)C(=S)N(Cc1cccnc1)C(=O)c1cc(Cl)cc(Cl)c1 | 49 | 73.8 | 51.4 | > 100 | > 100 | > 100 | 61.6 | 79.5 | > 100 | 89.6 | > 100 | > 100 | > 100 | 56.2 | > 100 | > 100 | > 100 |  |  | 
C[C@@H](Oc1ccc(Oc2cnc3ccc(Cl)cc3n2)cc1)C(=O)O | > 100 | > 100 | > 100 | > 100 | > 100 | > 100 | > 100 | > 100 | > 100 | > 100 | > 100 | > 100 | > 100 | > 100 | > 100 | > 100 | > 100 | > 87.9 | 46.4 | 69.6
O=C1C(Cl)=C(N2CCN(CCOCCO)CC2)C(=O)c2ccccc21 | 3.57 | 24 | 33.1 | 15.2 | 28 | > 21.7 | 9.44 | 28.2 | 12.8 | 34.7 | 13.7 | 31.6 | > 26.9 | 21.2 | 7.27 | 15.7 | 39.2 |  |  | 
CCOC(=O)c1cc(C2=CCNC2=O)c(-c2cc(C)no2)[nH]1 | 46.6 | > 100 | > 100 | > 100 | > 100 | > 100 | > 100 | > 100 | > 100 | > 100 | > 100 | > 100 | > 100 | > 100 | > 100 | > 100 | > 100 |  |  | 
CC1=NNC(=O)C1C1CC(c2c[nH]c3ccccc23)=NN(c2ccccc2)C1=O (stereo not given) | 77.9 | 57.7 | > 100 | > 100 | > 100 | > 100 | > 100 | > 100 | > 100 | > 100 | > 100 | > 100 | > 100 | > 100 | 72.6 | > 100 | > 100 |  |  | 
Clc1cc2nc(C3CCCCO3)[nH]c2cc1Cl (stereo not given) | 18.5 | > 91.9 | 97 | > 100 | > 59.8 | > 100 | 23.9 | > 73 | > 44.6 | > 100 | > 100 | > 56.9 | > 73.4 | > 53.3 | > 100 | > 100 | > 71.3 |  |  | 
COc1ccc(C(OC(=O)[C@H](O[Si](C)(C)C(C)(C)C)[C@@H](NC(=O)c2ccccc2)c2ccccc2)c2ccc(OC)cc2)cc1 | > 100 | > 100 | > 100 | > 100 | > 100 | > 100 | > 100 | > 100 | > 100 | > 100 | > 100 | > 100 | 25.1 | > 100 | > 100 | > 100 | > 100 |  |  | 
CC1(c2nc3ccccc3[nH]2)CCC(C#N)C(C)(C)O1 (stereo not given) | > 100 | > 100 | > 100 | > 100 | > 100 | > 100 | > 100 | > 100 | > 100 | > 100 | > 100 | > 100 | > 100 | > 100 | > 100 | > 100 | > 100 |  |  | 
CC(=O)c1cc2c(s1)C(=O)c1ccsc1C2=O | 0.486 | 4.16 | 0.649 | 0.332 | 0.337 | 3.57 | 0.729 | 1.59 | 0.226 | 3.69 | 0.688 | 3.11 | 49.7 | 0.597 | 1.3 | 0.285 | 0.561 |  |  | 
Cc1occc1C(=S)Nc1ccc(Cl)c(C(=O)OCC(C)C)c1 | 29.2 | 33.5 | 43.6 | 36.2 | 45.3 | 55.2 | 46.5 | 30.7 | 32.8 | 33.5 | 26.5 | 27.5 | 75 | 33.2 | > 100 | 40.2 | 62.6 |  |  | 
Cc1nn(C(=O)c2ccc(Cl)cc2)c2c1C(c1ccccc1O)SC(N)=N2 (stereo not given) | > 10 | > 10 | > 10 | > 10 | > 10 | > 10 | > 10 | > 10 | > 10 | > 10 | > 10 | > 10 | > 10 |  | > 10 | > 10 | > 10 |  |  | 
